Reference: PMC12420824, “Discovery of a selective alpha-kinase 1 inhibitor for the rare genetic disease ROSAH syndrome” (Nature Communications, 2025)
Where “and” joins values, the source holds several entries; their conditions need not be identical. Identical values can stand only once.

Assays:
NIM1 = NIM1 (Homo sapiens, UniProt Q8IY84); assay: HotSpot kinase assay; settings: read-out: % Enzyme Activity (relative to DMSO control), 10 uM
From the text: (§1) Additionally, a 10-dose dilution series of staurosporine and other enzyme-appropriate compounds were included as positive control inhibitors.

CAMKK1 = CAMKK1 (Homo sapiens, UniProt Q8N5S9); assay: HotSpot kinase assay; settings: read-out: % Enzyme Activity (relative to DMSO control), 10 uM
From the text: as §1

EPHB4 = EPHB4 (Homo sapiens, UniProt P54760); assay: HotSpot kinase assay; settings: read-out: % Enzyme Activity (relative to DMSO control), 10 uM
From the text: as §1

MINK/MINK1 = MINK/MINK1 (Homo sapiens, UniProt Q8N4C8); assay: HotSpot kinase assay; settings: read-out: % Enzyme Activity (relative to DMSO control), 10 uM
From the text: as §1

ROS/ROS1 = ROS/ROS1 (Homo sapiens, UniProt P08922); assay: HotSpot kinase assay; settings: read-out: % Enzyme Activity (relative to DMSO control), 10 uM
From the text: as §1

[1] = tested on: HEK-293 cells transfected with GFP-TIFA; assay: DF-006-induced TIFAsome formation
Method: Curve fitting and IC50 value calculations were performed with GraphPad Prism 6.
HEK-293 cells were purchased from the Cell Bank of The Chinese Academy of Sciences and routinely cultured in DMEM/High-Glucose (Hyclone). For TIFAsome analyses, the coding sequence for the GFP-TIFA fusion protein was cloned into the pcDNA3.1 plasmid. […] Each condition was conducted in sextuplicate. Cells were fixed with 4% paraformaldehyde and stained with DAPI (Shanghai Zhenghuang, Shanghai, China; C1005). Fluorescent images were acquired using a Motic upright fluorescent microscope (PA53 BIO FS6).

KSR2 = KSR2 (Homo sapiens, UniProt Q6VAB6); assay: HotSpot kinase assay; settings: read-out: % Enzyme Activity (relative to DMSO control), 10 uM
From the text: as §1

TSSK2 = TSSK2 (Homo sapiens, UniProt Q96PF2); assay: HotSpot kinase assay; settings: read-out: % Enzyme Activity (relative to DMSO control), 10 uM
From the text: as §1

DYRK1B = DYRK1B (Homo sapiens, UniProt Q9Y463); assay: HotSpot kinase assay; settings: read-out: % Enzyme Activity (relative to DMSO control), 10 uM
From the text: as §1

MARK3 = MARK3 (Homo sapiens, UniProt P27448); assay: HotSpot kinase assay; settings: read-out: % Enzyme Activity (relative to DMSO control), 10 uM
From the text: as §1

AMPK(A2/B2/G2) = AMPK(A2/B2/G2) (Homo sapiens, UniProt P54646); assay: HotSpot kinase assay; settings: read-out: % Enzyme Activity (relative to DMSO control), 10 uM
From the text: as §1

TAK1 = TAK1 (Homo sapiens, UniProt O43318); assay: HotSpot kinase assay; settings: read-out: % Enzyme Activity (relative to DMSO control), 10 uM
From the text: as §1

TYRO3/SKY = TYRO3/SKY (Homo sapiens, UniProt Q06418); assay: HotSpot kinase assay; settings: read-out: % Enzyme Activity (relative to DMSO control), 10 uM
From the text: as §1

PKCnu/PRKD3 = PKCnu/PRKD3 (Homo sapiens, UniProt O94806); assay: HotSpot kinase assay; settings: read-out: % Enzyme Activity (relative to DMSO control), 10 uM
From the text: as §1

AXL = AXL (Homo sapiens, UniProt P30530); assay: HotSpot kinase assay; settings: read-out: % Enzyme Activity (relative to DMSO control), 10 uM
From the text: as §1

AMPK(A1/B2/G1) = AMPK(A1/B2/G1) (Homo sapiens, UniProt Q13131); assay: HotSpot kinase assay; settings: read-out: % Enzyme Activity (relative to DMSO control), 10 uM
From the text: as §1

CLK1 = CLK1 (Homo sapiens, UniProt P49759); assay: HotSpot kinase assay; settings: read-out: % Enzyme Activity (relative to DMSO control), 10 uM
From the text: as §1

ALK = ALK (Homo sapiens, UniProt Q9UM73); assay: HotSpot kinase assay; settings: read-out: % Enzyme Activity (relative to DMSO control), 10 uM
From the text: as §1

PKN2/PRK2 = PKN2/PRK2 (Homo sapiens, UniProt Q16513); assay: HotSpot kinase assay; settings: read-out: % Enzyme Activity (relative to DMSO control), 10 uM
From the text: as §1

STK38L/NDR2 = STK38L/NDR2 (Homo sapiens, UniProt Q9Y2H1); assay: HotSpot kinase assay; settings: read-out: % Enzyme Activity (relative to DMSO control), 10 uM
From the text: as §1

MAST3 = MAST3 (Homo sapiens, UniProt O60307); assay: HotSpot kinase assay; settings: read-out: % Enzyme Activity (relative to DMSO control), 10 uM
From the text: as §1

TNK1 = TNK1 (Homo sapiens, UniProt Q13470); assay: HotSpot kinase assay; settings: read-out: % Enzyme Activity (relative to DMSO control), 10 uM
From the text: as §1

CTK/MATK = CTK/MATK (Homo sapiens, UniProt P42679); assay: HotSpot kinase assay; settings: read-out: % Enzyme Activity (relative to DMSO control), 10 uM
From the text: as §1

PKD2/PRKD2 = PKD2/PRKD2 (Homo sapiens, UniProt Q9BZL6); assay: HotSpot kinase assay; settings: read-out: % Enzyme Activity (relative to DMSO control), 10 uM
From the text: as §1

EPHB1 = EPHB1 (Homo sapiens, UniProt P54762); assay: HotSpot kinase assay; settings: read-out: % Enzyme Activity (relative to DMSO control), 10 uM
From the text: as §1

PAK3 = PAK3 (Homo sapiens, UniProt O75914); assay: HotSpot kinase assay; settings: read-out: % Enzyme Activity (relative to DMSO control), 10 uM
From the text: as §1

MLCK2/MYLK2 = MLCK2/MYLK2 (Homo sapiens, UniProt Q9H1R3); assay: HotSpot kinase assay; settings: read-out: % Enzyme Activity (relative to DMSO control), 10 uM
From the text: as §1

EPHA3 = EPHA3 (Homo sapiens, UniProt P29320); assay: HotSpot kinase assay; settings: read-out: % Enzyme Activity (relative to DMSO control), 10 uM
From the text: as §1

MLK1/MAP3K9 = MLK1/MAP3K9 (Homo sapiens, UniProt P80192); assay: HotSpot kinase assay; settings: read-out: % Enzyme Activity (relative to DMSO control), 10 uM
From the text: as §1

CDK2/CYCLIN E = CDK2/CYCLIN E (Homo sapiens, UniProt P24941); assay: HotSpot kinase assay; settings: read-out: % Enzyme Activity (relative to DMSO control), 10 uM
From the text: as §1

PKCepsilon = PKCepsilon (Homo sapiens, UniProt Q02156); assay: HotSpot kinase assay; settings: read-out: % Enzyme Activity (relative to DMSO control), 10 uM
From the text: as §1

PKCb1 = PKCb1 (Homo sapiens, UniProt P05771); assay: HotSpot kinase assay; settings: read-out: % Enzyme Activity (relative to DMSO control), 10 uM
From the text: as §1

PKAcb = PKAcb (Homo sapiens, UniProt P22694); assay: HotSpot kinase assay; settings: read-out: % Enzyme Activity (relative to DMSO control), 10 uM
From the text: as §1

TTBK1 = TTBK1 (Homo sapiens, UniProt Q5TCY1); assay: HotSpot kinase assay; settings: read-out: % Enzyme Activity (relative to DMSO control), 10 uM
From the text: as §1

YSK4/MAP3K19 = YSK4/MAP3K19 (Homo sapiens, UniProt Q56UN5); assay: HotSpot kinase assay; settings: read-out: % Enzyme Activity (relative to DMSO control), 10 uM
From the text: as §1

TESK1 = TESK1 (Homo sapiens, UniProt Q15569); assay: HotSpot kinase assay; settings: read-out: % Enzyme Activity (relative to DMSO control), 10 uM
From the text: as §1

RIPK5 = RIPK5 (Homo sapiens, UniProt Q6XUX3); assay: HotSpot kinase assay; settings: read-out: % Enzyme Activity (relative to DMSO control), 10 uM
From the text: as §1

Chain of AMPK(A2/B2/G2) (P54646 whole entry): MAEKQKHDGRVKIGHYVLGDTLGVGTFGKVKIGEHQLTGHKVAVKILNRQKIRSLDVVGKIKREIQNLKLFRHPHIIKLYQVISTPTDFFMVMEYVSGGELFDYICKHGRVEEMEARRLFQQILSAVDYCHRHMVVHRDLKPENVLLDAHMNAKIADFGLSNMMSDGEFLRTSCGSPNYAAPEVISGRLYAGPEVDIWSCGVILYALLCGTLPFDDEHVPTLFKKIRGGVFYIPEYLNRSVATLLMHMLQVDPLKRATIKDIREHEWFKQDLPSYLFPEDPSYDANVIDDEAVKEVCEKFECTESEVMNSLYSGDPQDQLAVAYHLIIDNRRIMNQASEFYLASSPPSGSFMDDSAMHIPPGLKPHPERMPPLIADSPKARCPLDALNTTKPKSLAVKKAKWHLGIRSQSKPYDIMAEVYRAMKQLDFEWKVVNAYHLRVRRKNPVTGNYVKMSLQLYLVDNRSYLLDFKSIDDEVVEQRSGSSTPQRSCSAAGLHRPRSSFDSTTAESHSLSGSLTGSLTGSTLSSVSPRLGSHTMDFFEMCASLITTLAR
Chain of AMPK(A2/B2/G2) (O43741 whole entry partner): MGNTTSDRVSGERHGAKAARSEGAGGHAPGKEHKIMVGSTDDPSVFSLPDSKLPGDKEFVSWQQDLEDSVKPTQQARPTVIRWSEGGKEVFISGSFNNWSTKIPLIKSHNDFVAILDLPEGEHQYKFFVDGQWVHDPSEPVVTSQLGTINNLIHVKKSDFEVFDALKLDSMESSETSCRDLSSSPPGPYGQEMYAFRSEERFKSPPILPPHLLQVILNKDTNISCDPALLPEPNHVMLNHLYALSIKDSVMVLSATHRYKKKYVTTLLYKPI
Chain of AMPK(A2/B2/G2) (Q9UGJ0 whole entry partner): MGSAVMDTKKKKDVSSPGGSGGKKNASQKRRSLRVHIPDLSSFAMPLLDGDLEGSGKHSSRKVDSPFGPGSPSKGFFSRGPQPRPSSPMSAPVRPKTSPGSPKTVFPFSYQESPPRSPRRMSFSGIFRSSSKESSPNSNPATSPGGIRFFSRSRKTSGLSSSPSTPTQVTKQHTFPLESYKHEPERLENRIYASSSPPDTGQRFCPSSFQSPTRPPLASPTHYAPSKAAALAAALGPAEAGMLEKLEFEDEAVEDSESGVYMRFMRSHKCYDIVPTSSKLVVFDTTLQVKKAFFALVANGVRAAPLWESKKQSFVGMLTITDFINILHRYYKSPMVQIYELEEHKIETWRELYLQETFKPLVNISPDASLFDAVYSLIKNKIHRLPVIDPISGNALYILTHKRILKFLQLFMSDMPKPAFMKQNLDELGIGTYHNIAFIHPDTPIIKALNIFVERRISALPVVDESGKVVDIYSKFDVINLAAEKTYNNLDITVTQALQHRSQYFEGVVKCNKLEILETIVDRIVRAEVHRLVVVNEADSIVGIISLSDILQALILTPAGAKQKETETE
Chain of AXL (P30530 26-894): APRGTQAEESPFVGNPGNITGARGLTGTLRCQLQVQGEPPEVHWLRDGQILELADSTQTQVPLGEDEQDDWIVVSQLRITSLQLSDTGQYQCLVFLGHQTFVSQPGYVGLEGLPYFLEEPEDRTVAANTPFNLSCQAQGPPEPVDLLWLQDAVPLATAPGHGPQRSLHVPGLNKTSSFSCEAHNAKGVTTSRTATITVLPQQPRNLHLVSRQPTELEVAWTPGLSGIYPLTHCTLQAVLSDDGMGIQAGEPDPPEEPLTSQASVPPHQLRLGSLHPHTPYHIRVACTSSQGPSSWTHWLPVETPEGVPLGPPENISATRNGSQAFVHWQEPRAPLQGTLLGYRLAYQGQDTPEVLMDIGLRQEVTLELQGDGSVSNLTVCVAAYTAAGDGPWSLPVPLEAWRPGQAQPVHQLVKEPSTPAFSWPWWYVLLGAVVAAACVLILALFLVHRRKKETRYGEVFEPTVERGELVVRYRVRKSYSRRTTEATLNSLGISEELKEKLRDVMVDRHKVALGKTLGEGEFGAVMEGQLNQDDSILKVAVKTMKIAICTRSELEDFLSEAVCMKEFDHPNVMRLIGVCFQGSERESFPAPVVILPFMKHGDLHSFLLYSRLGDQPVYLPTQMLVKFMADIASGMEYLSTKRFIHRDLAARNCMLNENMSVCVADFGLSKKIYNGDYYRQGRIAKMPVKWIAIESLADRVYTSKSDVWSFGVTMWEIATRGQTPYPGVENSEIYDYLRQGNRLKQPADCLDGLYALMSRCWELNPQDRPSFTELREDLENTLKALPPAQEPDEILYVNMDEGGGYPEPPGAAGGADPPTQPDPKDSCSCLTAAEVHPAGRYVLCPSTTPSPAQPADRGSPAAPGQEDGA
Chain of TYRO3/SKY (Q06418 41-890): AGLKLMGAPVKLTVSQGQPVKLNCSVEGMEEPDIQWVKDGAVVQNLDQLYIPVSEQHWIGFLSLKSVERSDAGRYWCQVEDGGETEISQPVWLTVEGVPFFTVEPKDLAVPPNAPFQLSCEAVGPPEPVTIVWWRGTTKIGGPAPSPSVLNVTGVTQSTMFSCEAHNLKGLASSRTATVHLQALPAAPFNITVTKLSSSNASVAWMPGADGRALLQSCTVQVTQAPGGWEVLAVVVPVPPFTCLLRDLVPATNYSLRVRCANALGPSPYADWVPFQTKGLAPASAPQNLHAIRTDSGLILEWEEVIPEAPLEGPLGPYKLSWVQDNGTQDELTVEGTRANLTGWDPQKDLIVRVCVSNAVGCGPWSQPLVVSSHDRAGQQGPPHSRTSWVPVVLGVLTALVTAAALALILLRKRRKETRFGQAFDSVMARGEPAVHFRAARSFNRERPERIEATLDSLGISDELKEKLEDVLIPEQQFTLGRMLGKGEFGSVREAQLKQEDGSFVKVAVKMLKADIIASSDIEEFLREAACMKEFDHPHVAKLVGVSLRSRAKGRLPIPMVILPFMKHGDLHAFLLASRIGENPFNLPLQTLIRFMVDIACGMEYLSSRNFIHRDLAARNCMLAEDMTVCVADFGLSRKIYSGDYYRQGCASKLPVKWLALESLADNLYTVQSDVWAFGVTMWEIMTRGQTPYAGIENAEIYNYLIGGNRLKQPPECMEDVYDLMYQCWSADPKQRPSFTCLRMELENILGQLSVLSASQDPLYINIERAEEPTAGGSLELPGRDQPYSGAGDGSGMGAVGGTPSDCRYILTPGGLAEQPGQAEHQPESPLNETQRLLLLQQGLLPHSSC
Chain of PKCepsilon (Q02156 whole entry): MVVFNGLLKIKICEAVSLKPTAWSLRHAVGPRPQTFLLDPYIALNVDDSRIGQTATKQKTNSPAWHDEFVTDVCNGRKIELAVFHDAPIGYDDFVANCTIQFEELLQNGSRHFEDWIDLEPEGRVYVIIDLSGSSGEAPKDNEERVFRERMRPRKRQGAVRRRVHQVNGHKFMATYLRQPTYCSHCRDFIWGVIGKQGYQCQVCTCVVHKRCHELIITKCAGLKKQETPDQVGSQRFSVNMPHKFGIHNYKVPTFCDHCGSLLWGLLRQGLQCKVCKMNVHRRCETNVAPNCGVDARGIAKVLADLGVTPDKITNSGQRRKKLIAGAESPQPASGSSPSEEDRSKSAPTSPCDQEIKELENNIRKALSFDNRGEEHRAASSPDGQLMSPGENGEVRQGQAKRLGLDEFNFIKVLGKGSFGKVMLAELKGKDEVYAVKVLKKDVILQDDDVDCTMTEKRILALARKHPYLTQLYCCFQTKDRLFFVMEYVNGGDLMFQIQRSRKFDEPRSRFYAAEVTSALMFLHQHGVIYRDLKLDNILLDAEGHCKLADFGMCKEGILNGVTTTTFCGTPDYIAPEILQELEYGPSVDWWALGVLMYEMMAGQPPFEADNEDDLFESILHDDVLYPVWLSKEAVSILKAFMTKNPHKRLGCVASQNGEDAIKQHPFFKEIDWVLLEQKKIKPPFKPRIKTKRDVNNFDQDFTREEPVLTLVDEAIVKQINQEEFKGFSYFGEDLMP
Chain of PAK3 (O75914 whole entry): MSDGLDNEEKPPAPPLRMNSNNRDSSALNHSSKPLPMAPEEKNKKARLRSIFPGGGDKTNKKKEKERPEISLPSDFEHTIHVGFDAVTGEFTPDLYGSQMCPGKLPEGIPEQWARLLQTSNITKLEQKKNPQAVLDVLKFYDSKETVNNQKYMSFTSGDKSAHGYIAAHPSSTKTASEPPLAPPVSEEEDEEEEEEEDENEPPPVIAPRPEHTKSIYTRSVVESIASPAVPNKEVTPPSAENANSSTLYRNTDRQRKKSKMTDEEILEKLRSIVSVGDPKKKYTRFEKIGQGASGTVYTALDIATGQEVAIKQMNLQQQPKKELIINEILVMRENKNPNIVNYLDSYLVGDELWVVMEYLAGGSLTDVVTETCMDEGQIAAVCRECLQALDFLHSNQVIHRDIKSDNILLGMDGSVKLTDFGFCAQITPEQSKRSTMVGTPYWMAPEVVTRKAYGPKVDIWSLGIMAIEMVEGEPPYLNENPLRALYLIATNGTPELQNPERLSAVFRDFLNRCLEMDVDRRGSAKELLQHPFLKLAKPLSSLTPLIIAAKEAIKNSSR
Chain of MLCK2/MYLK2 (Q9H1R3 whole entry): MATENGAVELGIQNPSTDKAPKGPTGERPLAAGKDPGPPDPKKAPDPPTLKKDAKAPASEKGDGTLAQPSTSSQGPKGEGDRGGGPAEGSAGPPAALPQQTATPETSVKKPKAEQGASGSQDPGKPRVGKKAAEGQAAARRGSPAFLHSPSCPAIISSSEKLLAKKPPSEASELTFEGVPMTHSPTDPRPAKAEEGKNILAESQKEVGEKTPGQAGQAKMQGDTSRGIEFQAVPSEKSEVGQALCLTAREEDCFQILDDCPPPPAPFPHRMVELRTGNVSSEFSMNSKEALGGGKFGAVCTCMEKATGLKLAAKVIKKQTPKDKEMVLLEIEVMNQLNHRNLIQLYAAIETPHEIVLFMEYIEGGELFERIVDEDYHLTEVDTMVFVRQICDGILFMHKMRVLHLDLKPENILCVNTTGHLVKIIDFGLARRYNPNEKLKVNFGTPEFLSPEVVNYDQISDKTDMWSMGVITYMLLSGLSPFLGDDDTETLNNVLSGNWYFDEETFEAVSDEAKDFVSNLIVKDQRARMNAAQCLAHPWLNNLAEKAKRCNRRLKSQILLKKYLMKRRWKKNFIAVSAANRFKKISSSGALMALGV

C#C[C@@](C)(c1ccc(Cl)cc1)c1csc(NC(=O)c2c(F)cc(N3CCNCC3)cc2F)n1 (stereo in doubt) [DF-003]
remaining activity at 10 µM (NIM1): 52.2%
remaining activity at 10 µM (CAMKK1): 92.8%
remaining activity at 10 µM (EPHB4): 85.6%
remaining activity at 10 µM (MINK/MINK1): 98.7%
remaining activity at 10 µM (ROS/ROS1): 93.5%
effect on DF-006-induced TIFAsome formation ([1]; 10 nM to 1 μM, 1 μM DF-006 1 h): potently suppressed DF-006-induced TIFAsome formation
Cells with TIFAsomes /GFP positive cells (%) ([1]; 200 nM DF-003+1 μM DF-006): 2.74% and 2.86% and 1.45% and 4.74% and 3.09%
Cells with TIFAsomes /GFP positive cells (%) ([1]; 1 μM DF-003+1 μM DF-006): 1.25% and 0% and 3.05% and 2.92% and 5.22%
remaining activity at 10 µM (KSR2): 79.5%
remaining activity at 10 µM (TSSK2): 101%
remaining activity at 10 µM (DYRK1B): 88.5%
remaining activity at 10 µM (MARK3): 102%
remaining activity at 10 µM (AMPK(A2/B2/G2)): 83%
remaining activity at 10 µM (TAK1): 102%
remaining activity at 10 µM (TYRO3/SKY): 51.8%
remaining activity at 10 µM (PKCnu/PRKD3): 53.2%
remaining activity at 10 µM (AXL): 47.9%
remaining activity at 10 µM (AMPK(A1/B2/G1)): 79.6%
remaining activity at 10 µM (CLK1): 91.2%
remaining activity at 10 µM (ALK): 115%
remaining activity at 10 µM (PKN2/PRK2): 61.3%
remaining activity at 10 µM (STK38L/NDR2): 90.6%
remaining activity at 10 µM (MAST3): 82.3%
remaining activity at 10 µM (TNK1): 100%
remaining activity at 10 µM (CTK/MATK): 80.2%
remaining activity at 10 µM (PKD2/PRKD2): 85.9%
remaining activity at 10 µM (EPHB1): 80.8%
remaining activity at 10 µM (PAK3): 117%
remaining activity at 10 µM (MLCK2/MYLK2): 81.3%
remaining activity at 10 µM (EPHA3): 117%
remaining activity at 10 µM (MLK1/MAP3K9): 79.7%
remaining activity at 10 µM (CDK2/CYCLIN E): 90.1%
remaining activity at 10 µM (PKCepsilon): 81.6%
remaining activity at 10 µM (PKCb1): 91.2%
remaining activity at 10 µM (PKAcb): 91.6%
remaining activity at 10 µM (TTBK1): 84.2%
remaining activity at 10 µM (YSK4/MAP3K19): 100%
remaining activity at 10 µM (TESK1): 82.9%
remaining activity at 10 µM (RIPK5): 82%
